Data reported in the NIST ThermoML archive (doi:10.1021/je700261b).

Assay: xn = mol fraction of the nth substance listed
Details: Liquid

CCCCO [butan-1-ol] + O=C=O
Details | mass density [kg/m3]
342.94 K, 13074 kPa, x2 = 0.5965 | 795.03
342.94 K, 14051 kPa, x2 = 0.5965 | 797.49
342.94 K, 15068 kPa, x2 = 0.5965 | 799.99
342.94 K, 15189 kPa, x2 = 0.8663 | 716.88
342.94 K, 16052 kPa, x2 = 0.8663 | 728.37
342.94 K, 16064 kPa, x2 = 0.5965 | 802.35
342.94 K, 17059 kPa, x2 = 0.8663 | 740.13
342.94 K, 17076 kPa, x2 = 0.5965 | 804.68
342.94 K, 18027 kPa, x2 = 0.8663 | 749.98
342.94 K, 18056 kPa, x2 = 0.5965 | 806.85
342.94 K, 19037 kPa, x2 = 0.5965 | 808.99
342.94 K, 19050 kPa, x2 = 0.8663 | 759.3
342.94 K, 20036 kPa, x2 = 0.8663 | 767.54
342.94 K, 20067 kPa, x2 = 0.5965 | 811.18
342.94 K, 21031 kPa, x2 = 0.5965 | 813.15
342.94 K, 21038 kPa, x2 = 0.8663 | 775.36
342.94 K, 22050 kPa, x2 = 0.5965 | 815.2
342.94 K, 22085 kPa, x2 = 0.8663 | 782.79
342.94 K, 23030 kPa, x2 = 0.5965 | 817.14
342.94 K, 23032 kPa, x2 = 0.8663 | 789.07
342.94 K, 24031 kPa, x2 = 0.5965 | 819.08
342.94 K, 24045 kPa, x2 = 0.8663 | 795.41
342.94 K, 25028 kPa, x2 = 0.5965 | 820.94
342.94 K, 25042 kPa, x2 = 0.8663 | 801.31
343 K, 6024 kPa, x2 = 0.1842 | 782.23
343 K, 7050 kPa, x2 = 0.1842 | 783.43
343 K, 8037 kPa, x2 = 0.1842 | 784.59
343 K, 9052 kPa, x2 = 0.1842 | 785.73
343 K, 10057 kPa, x2 = 0.1842 | 786.87
343 K, 11053 kPa, x2 = 0.1842 | 787.96
343 K, 12027 kPa, x2 = 0.1842 | 789.03
343 K, 13076 kPa, x2 = 0.1842 | 790.12
343 K, 14026 kPa, x2 = 0.1842 | 791.16
343 K, 15081 kPa, x2 = 0.1842 | 792.24
343 K, 16028 kPa, x2 = 0.1842 | 793.21
343 K, 17031 kPa, x2 = 0.1842 | 794.24
343 K, 18020 kPa, x2 = 0.1842 | 795.22
343 K, 19009 kPa, x2 = 0.1842 | 796.2
343 K, 20030 kPa, x2 = 0.1842 | 797.2
343 K, 21066 kPa, x2 = 0.1842 | 798.2
343 K, 21978 kPa, x2 = 0.1842 | 799.07
343 K, 23062 kPa, x2 = 0.1842 | 800.09
343 K, 24031 kPa, x2 = 0.1842 | 801.02
343 K, 25044 kPa, x2 = 0.1842 | 801.97
352.77 K, 1022 kPa, x2 = 0.0251 | 763.98
352.77 K, 2029 kPa, x2 = 0.0251 | 765.11
352.77 K, 3006 kPa, x2 = 0.0251 | 766.15
352.77 K, 4015 kPa, x2 = 0.0251 | 767.17
352.77 K, 5041 kPa, x2 = 0.0251 | 768.25
352.77 K, 5988 kPa, x2 = 0.0251 | 769.24
352.77 K, 7026 kPa, x2 = 0.0251 | 770.25
352.77 K, 8000 kPa, x2 = 0.0251 | 771.2
352.77 K, 9059 kPa, x2 = 0.0251 | 772.24
352.77 K, 10017 kPa, x2 = 0.0251 | 773.14
352.77 K, 11016 kPa, x2 = 0.0251 | 774.17
352.77 K, 12004 kPa, x2 = 0.0251 | 775.04
352.77 K, 13003 kPa, x2 = 0.0251 | 775.95
352.77 K, 14039 kPa, x2 = 0.0251 | 776.91
352.77 K, 14988 kPa, x2 = 0.0251 | 777.75
352.77 K, 16084 kPa, x2 = 0.0251 | 778.74
352.77 K, 17004 kPa, x2 = 0.0251 | 779.54
352.77 K, 18003 kPa, x2 = 0.0251 | 780.41
352.77 K, 19004 kPa, x2 = 0.0251 | 781.28
352.77 K, 20007 kPa, x2 = 0.0251 | 782.15
352.77 K, 21029 kPa, x2 = 0.0251 | 783.01
352.77 K, 22044 kPa, x2 = 0.0251 | 783.86
352.77 K, 22995 kPa, x2 = 0.0251 | 784.65
352.77 K, 24056 kPa, x2 = 0.0251 | 785.52
352.77 K, 25098 kPa, x2 = 0.0251 | 786.41
352.79 K, 18068 kPa, x2 = 0.9698 | 596.97
352.79 K, 18999 kPa, x2 = 0.9698 | 619.03
352.79 K, 20007 kPa, x2 = 0.9698 | 639.88
352.79 K, 21053 kPa, x2 = 0.9698 | 659.01
352.79 K, 22011 kPa, x2 = 0.9698 | 674.59
352.79 K, 23058 kPa, x2 = 0.9698 | 690
352.79 K, 24106 kPa, x2 = 0.9698 | 703.93
352.79 K, 25050 kPa, x2 = 0.9698 | 715.49
352.82 K, 6041 kPa, x2 = 0.1842 | 772.14
352.82 K, 7041 kPa, x2 = 0.1842 | 773.4
352.82 K, 8024 kPa, x2 = 0.1842 | 774.6
352.82 K, 9042 kPa, x2 = 0.1842 | 775.87
352.82 K, 10044 kPa, x2 = 0.1842 | 777.07
352.82 K, 11026 kPa, x2 = 0.1842 | 778.23
352.82 K, 12073 kPa, x2 = 0.1842 | 779.44
